# Laboratory results published in ChEMBL document CHEMBL1697731, “Cheminformatics analysis of assertions mined from literature that describe drug-induced liver injury in different species” (Chem Res Toxicol, 2010).
# Where a SMILES comes first, the peptide text is derived from it. Bridges are numbered along the chain shown (N, C = ends). [ ]: non-standard residue; d: D form. The star is where a group is joined. Ileψ(thiazoline)Cys = CC[C@H](C)[C@H](N)C1=N[C@H](C(=O)*)CS1; dOrn = NCCC[C@@H](N)C(=O)O
# What was measured:
# Hepatotoxicity [1] = assay: Literature-mined compound from Fourches et al multi-species drug-induced liver injury (DILI) dataset, effect in humans; details: human
# Hepatotoxicity [2] = assay: Literature-mined compound from Fourches et al multi-species drug-induced liver injury (DILI) dataset, effect in rodents; details: rodentia
# Hepatotoxicity [3] = assay: Literature-mined compound from Fourches et al multi-species drug-induced liver injury (DILI) dataset, effect in non-rodents
Compound,Hepatotoxicity (Hepatotoxicity [1]),Hepatotoxicity (Hepatotoxicity [2]),Hepatotoxicity (Hepatotoxicity [3]),Hepatotoxicity (Hepatotoxicity [1]; Liver),Hepatotoxicity (Hepatotoxicity [2]; Liver),Hepatotoxicity (Hepatotoxicity [3]; Liver)
CC[C@H](C)[C@H](N)C1=N[C@H](C(=O)N[C@@H](CC(C)C)C(=O)N[C@H](CCC(=O)O)C(=O)N[C@H](C(=O)N[C@H]2CCCCNC(=O)[C@H](CC(N)=O)NC(=O)[C@@H](CC(=O)O)NC(=O)[C@H](Cc3cnc[nH]3)NC(=O)[C@@H](Cc3ccccc3)NC(=O)[C@H]([C@@H](C)CC)NC(=O)[C@@H](CCCN)NC2=O)[C@@H](C)CC)CS1 [BACITRACIN] ({Ileψ(thiazoline)Cys}-L[dE]IK[dOrn]I[dF]H[dD]N; lactam 4-C),no drug-induced liver injury reported,drug-induced liver injury reported,no drug-induced liver injury reported,–,–,–
CC(COc1ccccc1)N(CCCl)Cc1ccccc1 (stereo not drawn) [PHENOXYBENZAMINE],no drug-induced liver injury reported,drug-induced liver injury reported,no drug-induced liver injury reported,–,–,–
C=C1CC[C@H](O)C/C1=C/C=C1\CCC[C@]2(C)[C@@H]([C@H](C)CCCC(C)C)CC[C@@H]12 [CHOLECALCIFEROL],no drug-induced liver injury reported,drug-induced liver injury reported,no drug-induced liver injury reported,–,–,–
CN1C[C@H](C(=O)N[C@]2(C)O[C@@]3(O)[C@@H]4CCCN4C(=O)[C@H](Cc4ccccc4)N3C2=O)C[C@@H]2c3cccc4[nH]cc(c34)C[C@H]21 [DIHYDROERGOTAMINE],drug-induced liver injury reported,drug-induced liver injury reported,no drug-induced liver injury reported,–,–,–
CC(C)NNC(=O)c1ccncc1 [IPRONIAZID],drug-induced liver injury reported,drug-induced liver injury reported,no drug-induced liver injury reported,–,–,–
O=C(O)CCCCCCNC1c2ccccc2CCc2ccccc21 [AMINEPTINE],drug-induced liver injury reported,drug-induced liver injury reported,no drug-induced liver injury reported,–,–,–
C[C@H]1O[C@@H](n2cc(F)c(=O)[nH]c2=O)[C@H](O)[C@@H]1O [DOXIFLURIDINE],drug-induced liver injury reported,drug-induced liver injury reported,no drug-induced liver injury reported,–,–,–
CN(C)CCC=C1c2ccccc2CCc2ccccc21 [AMITRIPTYLINE],drug-induced liver injury reported,drug-induced liver injury reported,no drug-induced liver injury reported,–,–,–
CNC(=O)[C@H](Cc1c[nH]c2ccccc12)NC(=O)[C@@H](CC(=O)NO)CC(C)C [ILOMASTAT],no drug-induced liver injury reported,drug-induced liver injury reported,no drug-induced liver injury reported,–,–,–
CC(N)=O [ACETAMIDE],no drug-induced liver injury reported,drug-induced liver injury reported,no drug-induced liver injury reported,–,–,–
CCCCCCCCc1ccc(CCC(N)(CO)CO)cc1 [FINGOLIMOD],drug-induced liver injury reported,drug-induced liver injury reported,no drug-induced liver injury reported,–,–,–
CCO [ALCOHOL],–,–,–,drug-induced liver injury reported,drug-induced liver injury reported,drug-induced liver injury reported
CC(C)NCC(O)c1ccc(O)c(O)c1 (stereo not drawn) [ISOPROTERENOL],–,–,–,drug-induced liver injury reported,drug-induced liver injury reported,drug-induced liver injury reported
O=C(O)COCCN1CCN(C(c2ccccc2)c2ccc(Cl)cc2)CC1 (stereo not drawn) [CETIRIZINE],–,–,–,drug-induced liver injury reported,no drug-induced liver injury reported,no drug-induced liver injury reported
CC(C)NCC1CCc2cc(CO)c([N+](=O)[O-])cc2N1 (stereo not drawn) [OXAMNIQUINE],no drug-induced liver injury reported,drug-induced liver injury reported,no drug-induced liver injury reported,–,–,–
CCN(CCCc1ccccc1)CCCc1ccccc1 [ALVERINE],drug-induced liver injury reported,no drug-induced liver injury reported,no drug-induced liver injury reported,–,–,–
BLEOMYCIN,drug-induced liver injury reported,drug-induced liver injury reported,no drug-induced liver injury reported,–,–,–
CCOC(=O)[C@H](CCc1ccccc1)N[C@@H](C)C(=O)N1C(=O)N(C)C[C@H]1C(=O)O,no drug-induced liver injury reported,drug-induced liver injury reported,no drug-induced liver injury reported,–,–,–

Compound,Hepatotoxicity (Hepatotoxicity [1]),Hepatotoxicity (Hepatotoxicity [2]),Hepatotoxicity (Hepatotoxicity [3]),Hepatotoxicity (Hepatotoxicity [1]; Liver),Hepatotoxicity (Hepatotoxicity [2]; Liver),Hepatotoxicity (Hepatotoxicity [3]; Liver)
COC(=O)C[C@](O)(CCCC(C)(C)O)C(=O)O[C@@H]1C(OC)=C[C@]23CCCN2CCc2cc4c(cc2[C@H]13)OCO4 [OMACETAXINE MEPESUCCINATE],drug-induced liver injury reported,no drug-induced liver injury reported,no drug-induced liver injury reported,–,–,–
CCCCC1(CC)C(=O)NC(=O)NC1=O [BUTETHAL],no drug-induced liver injury reported,drug-induced liver injury reported,no drug-induced liver injury reported,–,–,–
ClC=C(Cl)Cl [TRICHLOROETHYLENE],drug-induced liver injury reported,drug-induced liver injury reported,no drug-induced liver injury reported,–,–,–
CC[C@H]1OC(=O)[C@H](C)[C@@H](O[C@H]2C[C@@](C)(OC)[C@@H](O)[C@H](C)O2)[C@H](C)[C@@H](O[C@@H]2O[C@H](C)C[C@H](N(C)C)[C@H]2O)[C@](C)(O)C[C@@H](C)CN(C)[C@H](C)[C@@H](O)[C@]1(C)O [AZITHROMYCIN],drug-induced liver injury reported,no drug-induced liver injury reported,no drug-induced liver injury reported,–,–,–
Nc1ncnc2c1ncn2[C@@H]1O[C@H](CO)C[C@H]1O [CORDYCEPIN],no drug-induced liver injury reported,drug-induced liver injury reported,no drug-induced liver injury reported,–,–,–
CCCc1cc(=O)[nH]c(=S)[nH]1 [PROPYLTHIOURACIL],–,–,–,drug-induced liver injury reported,drug-induced liver injury reported,no drug-induced liver injury reported
NC(=O)c1ncn([C@@H]2O[C@H](CO)[C@@H](O)[C@H]2O)c1N [ACADESINE],no drug-induced liver injury reported,drug-induced liver injury reported,no drug-induced liver injury reported,–,–,–
CC1=NS(=O)(=O)c2cc(Cl)ccc2N1 [DIAZOXIDE],drug-induced liver injury reported,drug-induced liver injury reported,no drug-induced liver injury reported,–,–,–
Cc1nc2ccc(CN(C)c3ccc(C(=O)N[C@@H](CCC(=O)O)C(=O)O)s3)cc2c(=O)[nH]1 [RALTITREXED],drug-induced liver injury reported,no drug-induced liver injury reported,no drug-induced liver injury reported,–,–,–
CC(=O)CC(c1ccc([N+](=O)[O-])cc1)c1c(O)c2ccccc2oc1=O (stereo not drawn) [ACENOCOUMAROL],drug-induced liver injury reported,no drug-induced liver injury reported,no drug-induced liver injury reported,–,–,–
CC1(C)S[C@@H]2[C@H](NC(=O)[C@H](N)c3ccc(O)cc3)C(=O)N2[C@H]1C(=O)O.O=C([O-])[C@H]1/C(=C/CO)O[C@@H]2CC(=O)N21.[K+] [AMOXICILLIN/CLAVULANIC ACID],drug-induced liver injury reported,no drug-induced liver injury reported,no drug-induced liver injury reported,–,–,–
NC(=O)c1cnccn1 [PYRAZINAMIDE],drug-induced liver injury reported,drug-induced liver injury reported,no drug-induced liver injury reported,–,–,–
CC[C@H]1[C@@H]2C[C@H]3[C@@H]4N(C)c5ccccc5[C@]45C[C@@H]([C@@H]2[C@H]5O)N3[C@@H]1O [AJMALINE],drug-induced liver injury reported,no drug-induced liver injury reported,no drug-induced liver injury reported,–,–,–
O=C1c2c(O)ccc(O)c2C(=O)c2c(NCCNCCO)ccc(NCCNCCO)c21 [MITOXANTRONE],drug-induced liver injury reported,drug-induced liver injury reported,no drug-induced liver injury reported,–,–,–
CCCNC(=O)NS(=O)(=O)c1ccc(Cl)cc1 [CHLORPROPAMIDE],drug-induced liver injury reported,drug-induced liver injury reported,no drug-induced liver injury reported,–,–,–
OC[C@@H](O)[C@@H](O)[C@H](O)[C@@H](O)CO [SORBITOL],drug-induced liver injury reported,drug-induced liver injury reported,no drug-induced liver injury reported,–,–,–
CCCc1nn(C)c2c(=O)[nH]c(-c3cc(S(=O)(=O)N4CCN(C)CC4)ccc3OCC)nc12,drug-induced liver injury reported,no drug-induced liver injury reported,no drug-induced liver injury reported,–,–,–
CS(=O)(=O)c1ccc(C2=C(c3ccccc3)C(=O)OC2)cc1 [ROFECOXIB],drug-induced liver injury reported,drug-induced liver injury reported,no drug-induced liver injury reported,–,–,–
